In a melting point compilation (Tetko et al.; mined from patent text by program, amines drawn as free bases though some values may be those of a salt) one finds melting point data, which are given here for 62 molecules.

The molecule `O=Cc1ccc(-c2c(-c3nn[nH]n3)[nH]c3ccccc23)cc1` gave a melting point of 210 to 212 °C.
With `N#CCC(=O)c1ccccc1C1(c2ccccc2)OCC(CCl)O1` (configuration not stated) the figure was 107 to 110 °C; with `CCCCOC(=Cn1ccnc1)c1ccc(Cl)cc1Cl`, 205 to 207 °C; with `NS(=O)(=O)Oc1ccccc1C(=O)O`, 139 to 140 °C.
With `C#CCCCOc1c(C)cc(C(N)=O)cc1C` the figure was 81 to 84 °C; with `O=[N+]([O-])c1c(-c2ccc(Cl)cc2)[nH]c(C(F)(F)F)c1-c1csc(Br)c1Br`, 241 to 242 °C; with `NS(=O)(=O)c1cc2c3c(cc([N+](=O)[O-])c2cc1[N+](=O)[O-])N(C(=O)C(F)(F)F)CC3CCl` (configuration not stated), 201 to 204 °C.
`OCC1OC(n2cnc3c(NCc4ccc(Br)cc4)ncnc32)C(O)C1O` (configuration not stated) yielded a melting point of 179 °C.
`CC(C)(C)OC(=O)NCCNC(=O)c1cc(-c2ccccc2)c(=O)n2c1-c1ccccc1C2` came in with a melting point of 238 to 240 °C.
`COc1ccc2c(c1)c1c3c(c(-c4ccccc4)cc1n2CCCO)C(=O)NC3=O`: the melting point lay within 241 to 243 °C.
For `COC(=O)c1c[nH]c(Cl)c1`, the melting point was found to be 92 °C.
With `NC(=O)c1ccc(F)c2c1OCC(N(CCCc1c[nH]c3ccc(F)cc13)CC1CC1)C2` (configuration not stated) the figure was 123 °C; with `CCOC(=O)C1=C(C(C)C)Nc2n[nH]cc2C1c1ccccc1Cl` (configuration not stated), 211 to 213 °C; with `Nc1nc(CCc2ccccc2)cc(C2CCN(C(=O)c3ccccc3)CC2)n1`, 104 to 106 °C.
With `CNC(c1ccnc(F)c1)C(O)c1cccc(C(F)(F)F)c1` (configuration not stated) the figure was 99 to 102 °C; with `Cc1sc(-c2ccccc2)nc1COc1ccc(Cn2cc(CC(=O)O)c(-c3ccccc3)n2)cn1`, 140 to 141 °C.
With `CC1(C)OC(C(F)(F)F)Nc2ccc(-c3cc(F)cc(C#N)c3)cc21` (configuration not stated) the figure was 102 to 103 °C; with `NC(=O)C(CCCCCOc1cccc([N+](=O)[O-])c1C=O)C1NCCc2ccccc21` (configuration not stated), 99 to 100 °C.
Turning to `COC(=O)CCCCCCCCCCCO`, the melting point lay in the range of 33.5 to 35 °C.
With `COc1ccccc1N1CCN(C(=O)CCCN2CC=C(c3c[nH]c4cc(F)ccc34)CC2)CC1` the figure was 118 to 120 °C.
With `CNC(=O)N(C)c1nnc(SCc2cccc(F)c2)s1` the figure was 112 to 116 °C; with `O=S(=O)(c1ccc(O)cc1)N(CC(F)(F)F)c1ccc(O)cc1`, 172 to 173 °C; with `Cc1cc(C)c2c3c([nH]c2c1)C(=O)N=NC3=O`, more than 250 °C.
With `COC(=O)CCCOc1ccccc1I` the figure was 66.5 to 67 °C; with `Nc1c(Cl)cc(C(O)CNCCCCCOCCc2cc3ccccc3o2)cc1Cl` (configuration not stated), 49 to 52 °C.
As to `C#CCOc1ccc(C)nc1`, the melting point is 32 to 34 °C.
The molecule `Cc1cccc(-c2[nH]c(C(C)C)nc2-c2cccc(-c3ccsc3)c2)n1` registered a melting point of 83 to 85 °C.
With `O=C(O)CN(CC(=O)O)CC(CCc1ccc([N+](=O)[O-])cc1)N(CC(=O)O)CC(=O)O` (configuration not stated) the figure was 188 to 189 °C.
Molecule `CC=COc1cc(N)c(Cl)cc1C(=O)O` gave a melting point of 136 to 137 °C.
With `CSc1c(O[C@H]2CC[C@@H](N3C(=O)c4ccccc4C3=O)CC2)ccc2[nH]ncc12` the figure was 211 to 212 °C.
With `O=C(Nc1cccc(Br)n1)c1cc(-c2ccc(F)cc2)n(C2CCCCO2)n1` (configuration not stated) the figure was 151 to 152 °C; with `COC(=O)CCc1cc(C(C)(C)C)c(O)c(C(C)(C)C)c1`, 63 to 64.5 °C.
With `CCCN1CC(O)c2cc(OC)c(OC)c3c2C1Cc1cc(OC)c(OC)cc1-3` (configuration not stated) the figure was 153 to 154 °C.
In turn, `O=C1OCCN1c1ccc(F)c([N+](=O)[O-])c1` registered a melting point of 135 °C.
With `Cc1ccccc1CC1(CO)CCN(C(=O)OC(C)(C)C)CC1` the figure was 104 to 106 °C; with `COc1cc(C(=O)NCCc2cccc(C)c2)cc(OC)c1OC`, 105 to 108 °C; with `CC(=O)OC1CSC(Oc2ccc(C)nc2C)C(OC(C)=O)C1OC(C)=O` (configuration not stated), 139 to 140 °C.
Regarding `CC(C)(CCl)C(=O)N(O)Cc1ccccc1`, the melting point lay within 90 to 92 °C.
With `CC(C)n1nc(-c2sc(NC(=O)C3CC3)nc2-c2ccc(F)cc2)ccc1=O` the figure was 250 to 252 °C.
With `OCc1cc2cc(-c3ccc(OC(F)(F)F)cc3)ccc2n1Cc1ccccc1` the figure was 108 to 109 °C; with `CCCn1cc(Cc2ccc(C(=O)NS(=O)(=O)c3ccccc3C)cc2OC)c2cc(CCCCC(=O)N(C)C)ccc21`, 80 to 85 °C; with `COC(=O)c1ccc(OCC(N)=O)c(N)c1`, 181 to 182 °C.
With `NC1=NN(c2nc3ccccc3s2)CC1` the figure was 232 to 235 °C; with `Cc1ccc(C)c(OCCCC(C)(C)C(=O)Nc2ccc3c(c2)OCO3)c1`, 89 to 90 °C; with `O=C(O)c1cccc(N(C(c2ccccc2)c2ccccc2)n2cc(C3c4ccccc4C=Cc4ccccc43)c(=S)[nH]c2=O)c1`, 210 °C.
With `CC(=Cc1c[nH]c2ccc3c(c12)CC(O)CO3)[N+](=O)[O-]` (configuration not stated), the melting point fell in the range of 240 to 242 °C.
In turn, `Cc1nc(C(F)(F)F)ccc1C(=O)C1=C(O)C(C)(C)CCC1=O` showed a melting point of 75 to 77 °C.
With `COC(=O)c1ccc(F)c2c1CC(N(CCCCc1c[nH]c3ccc(F)cc13)C1CCC1)CO2` (configuration not stated) the figure was 115 °C.
`O=S(=O)(Nc1cccc(CCOCc2ccc(-c3ccc(F)cc3)cc2F)c1)C(F)(F)F` came in with a melting point of 65 to 67 °C.
With `O=c1[nH]nc2n1-c1ccc(Cl)cc1C(c1ccccc1Cl)=CC2` the figure was 250 to 251 °C.
With `Cc1cc(O)c(SCc2ccc(Cl)cc2)c(=O)o1` the figure was 139 to 141 °C; with `CC(C)Cn1c(=O)n(C)c(=O)c2c(SCCCO)c(C(O)c3cccc4ccccc34)sc21` (configuration not stated), 100 to 105 °C; with `O=C1c2ccc(O)cc2C(=O)N1c1ccc(C2(c3ccc(N4C(=O)c5ccc(O)cc5C4=O)cc3)c3ccccc3-c3ccccc32)cc1`, more than 300 °C.
Molecule `COc1ccc(C(=O)N2CSCC2=O)cc1` came in with a melting point of 123 to 124 °C.
In the case of `O=C(O)c1nc(-c2ccc(Cl)cc2Cl)n(-c2ccc(Cl)cc2)c1Br`, the melting point lay within 205 to 207 °C.
In the case of `COC(=O)C(C)Oc1ccc(Oc2ccc3cc(Cl)cc(Cl)c3n2)cc1` (configuration not stated), the melting point was determined as 70 °C.
With `COc1ccc(-n2nc(Sc3ccc(F)cc3)c(C)c(C#N)c2=O)cc1` the figure was 150 to 152 °C.
With `O=CN(O)C(CC1CCC2(CC1)OCCO2)CS(=O)(=O)c1ccc(Oc2ccc(OC(F)(F)F)cc2)cc1` (configuration not stated) the figure was 140 to 141 °C.
`COc1cc(OC)nc(NC(=O)NS(=O)(=O)c2nccn2-c2ccccn2)n1` gave a melting point of 146 to 149 °C.
With `CC(CCC(=O)NCCCCCC(=O)NCCCCCO)C1CCC2C3C(O)CC4CC(O[Si](C)(C)C(C)(C)C)CCC4(C)C3CC(O)C12C` (configuration not stated) the figure was 146 to 148 °C; with `CSc1nc(NC2CCCC2)c2ccnc-2[nH]1`, 190 to 191 °C.
With `CCOc1c(C(C)=O)cnc2c1cnn2Cc1ccco1` the figure was 139 to 141 °C.

By melting point is commonly meant the temperature, or range, at which the solid turns liquid.
